What was measured:
[1] = xn = mol fraction of the nth substance listed; details: 100 kPa, Liquid; for viscosity: Capillary tube (Ostwald / Ubbelohde) method; for speed of sound: Frequency=3 MHz, Sing-around technique in a fixed-path interferometer; for mass density: Vibrating tube method
[2] = refractive index (Na D-line) (dimensionless); xn = mol fraction of the nth substance listed; details: 100 kPa, Liquid, Standard Abbe refractometry

CC(=O)N(C)C [N,N-dimethylethanamide] + CC(C)O
Details	mass density, [1] [kg/m3]	refractive index, [2]	speed of sound, [1] [m/s]	viscosity, [1] [mPa·s]
283.15 K, x1 = 0.0551	803.7	1.38572	1214.1	2.752
283.15 K, x1 = 0.1091	813.5	1.38973	1234.9	2.354
283.15 K, x1 = 0.2113	831.42	1.39698	1271.8	1.896
283.15 K, x1 = 0.3066	847.5	1.40342	1303.6	1.643
283.15 K, x1 = 0.4084	864.09	1.40997	1336.4	1.476
283.15 K, x1 = 0.5049	879.33	1.4159	1366.7	1.392
283.15 K, x1 = 0.6056	894.73	1.42182	1398.1	1.305
283.15 K, x1 = 0.7028	909.13	1.42729	1427.9	1.272
283.15 K, x1 = 0.8024	923.39	1.43267	1458.5	1.246
283.15 K, x1 = 0.8956	936.27	1.43751	1486.3	1.213
283.15 K, x1 = 0.9464	943.08	1.44007	1501.5	1.205
283.15 K, x1 = 1	950.13	1.44273	1516.8	1.168
298.15 K, x1 = 0.0551	791.24	1.37924	1160.6	1.793
298.15 K, x1 = 0.1091	800.93	1.38322	1180.6	1.598
298.15 K, x1 = 0.2113	818.64	1.39042	1215.9	1.355
298.15 K, x1 = 0.3066	834.52	1.3968	1247.4	1.214
298.15 K, x1 = 0.4084	850.94	1.40331	1279.7	1.117
298.15 K, x1 = 0.5049	866.02	1.40919	1309.3	1.057
298.15 K, x1 = 0.6056	881.3	1.41506	1338.8	1.017
298.15 K, x1 = 0.7028	895.59	1.42049	1369.3	0.993
298.15 K, x1 = 0.8024	909.75	1.42581	1399.3	0.977
298.15 K, x1 = 0.8956	922.53	1.43061	1426.5	0.956
298.15 K, x1 = 0.9464	929.3	1.43317	1441.3	0.949
298.15 K, x1 = 1	936.29	1.43579	1453.7	0.93
313.15 K, x1 = 0.0551	778.1	1.37249	1107.6	1.223
313.15 K, x1 = 0.1091	787.72	1.37646	1127.3	1.129
313.15 K, x1 = 0.2113	805.29	1.38365	1162.2	1.008
313.15 K, x1 = 0.3066	821.08	1.39004	1193.5	0.933
313.15 K, x1 = 0.4084	837.39	1.39653	1225.2	0.879
313.15 K, x1 = 0.5049	852.41	1.40242	1254.2	0.849
313.15 K, x1 = 0.6056	867.62	1.40827	1282.9	0.828
313.15 K, x1 = 0.7028	881.85	1.4137	1313.2	0.809
313.15 K, x1 = 0.8024	895.96	1.41903	1342.1	0.795
313.15 K, x1 = 0.8956	908.71	1.42383	1368.5	0.779
313.15 K, x1 = 0.9464	915.46	1.42638	1382.5	0.772
313.15 K, x1 = 1	922.43	1.42901	1393.3	0.764
